# In patent publication US7517874B2 (priority 2007, dated 2009):
# Legend:
# [1] = biological target: T1, rat CB2 receptor (rCB2) (Rattus norvegicus, UniProt Q9QZN9); experiment: cell-based; format: cell-based; conditions: for +/− RCB2: agonist or inverse agonist at rCB2
# T1 sequence (Q9QZN9 1-360): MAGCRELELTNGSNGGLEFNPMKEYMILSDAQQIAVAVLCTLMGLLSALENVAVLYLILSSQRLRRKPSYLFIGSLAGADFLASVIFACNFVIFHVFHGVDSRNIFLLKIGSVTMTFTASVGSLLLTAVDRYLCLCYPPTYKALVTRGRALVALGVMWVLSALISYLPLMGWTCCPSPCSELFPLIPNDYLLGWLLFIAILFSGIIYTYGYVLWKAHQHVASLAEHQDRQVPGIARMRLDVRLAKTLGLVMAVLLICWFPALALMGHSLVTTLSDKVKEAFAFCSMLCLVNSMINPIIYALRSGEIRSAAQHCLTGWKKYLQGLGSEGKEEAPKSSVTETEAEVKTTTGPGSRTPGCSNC
# Procedure: (§1) The ability of compounds to act as agonists or inverse agonists at human CB2 and CB1 receptors (hCB2, hCB1, respectively) and at the rat CB2 receptor (rCB2) was determined by measuring changes in intracellular cAMP levels. Chinese Hamster Ovary (CHO-K1) cell lines stably expressing hCB2 (Genebank: X74328) or hCB1 (Genebank: X54937) were purchased from Euroscreen (Gosselies, Belgium). The rat CB2 receptor was expressed from genomic DNA (provided by M. Abood, California Pacific Medical Center) in CHO-K1 cells from expression plasmid vector, pcDNA3.1.
# (§2) Cell lines were grown in suspension in EX-CELL 302 CHO Serum-free medium (Sigma, cat #14324C) supplemented with 1% Fetal Bovine Serum, glutamine and non-essential amino-acids under 0.4 mg/mL G418 selection.
# (§3) Receptor mediated responses were determined by measuring changes in intracellular cAMP using LANCE cAMP detection kit (cat #AD0264, Perkin Elmer, Wellesley, Mass.) based on time-resolved fluorescence resonance energy transfer (TR-FRET). Changes in cAMP were determined in cells pre-incubated with IBMX (isobutyl methylxanthine) and prestimulated with NKH-477 (a water soluble forskolin derivative, cat #1603, Tocris, Ellisville, Mo.) to increase basal cAMP levels as detailed below.
# (§4) On the day of the experiment, cells were spun at low speed for 5 min at room temperature. The supernatant was removed and cells were resuspended in stimulation buffer (Hanks Buffered Salt Solution/5 mM HEPES, containing 0.5 mM IBMX (cat #17018, Sigma) and 0.02% BSA (Perkin-Elmer, cat #CR84-100)). Cell clumps were removed by filtering through cell strainer 40 μm (BD Falcon, Discovery Labware, Bedford, Mass.) and diluted to 2×10^5 cells/mL. Antibody supplied with the LANCE cAMP immunoassay kit was then added according to the manufacturer's instructions. An aliquot of cells was taken for un-induced controls. To the remaining cells was added NKH-477 (a water soluble forskolin derivative, Tocris cat #1603) to a final concentration of 2-8 μM. Cells were then incubated for 30 min at room temperature prior to adding to Proxiplates containing test compounds (final DMSO concentration was less than 0.5%) with a Multidrop bulk dispenser, followed by a sixty minute incubation at room temperature. The response was stopped by addition of the detection mix supplied with the LANCE kit. The reagents were allowed to equilibrate for three hours prior to reading on an Envision multi-mode detector (Perkin-Elmer). TR-FRET was measured using a 330-380 nm excitation filter, a 665 nm emission filter, dichroic mirror 380 nm and Z=1 mm. Cyclic AMP concentrations in each well were back-calculated from a cAMP standard curve run concurrently during each assay. Each plate contained 16 wells of forskolin stimulated cells and 16 wells of forskolin plus CP55,940-treated cells. Cells were treated with 1 μM CP55,940 (Tocris cat. #0949). Concentrations of cAMP were expressed as a percent of the difference of these two groups of wells. Concentration-response data including EC50 (the concentration of compound producing 50% of the maximal response) and intrinsic activity (the percent maximal activation compared to full activation by CP55,940) were determined using a four-parameter non-linear regression algorithm (Xlfit equation 251, IDBS).
# [2] = biological target: human CB1 receptor (hCB1) (Homo sapiens, UniProt P21554); experiment: cell-based; format: cell-based
# Procedure: as §1, §2, §3, §4
# Sequence of human CB1 receptor (hCB1) (P21554 whole entry): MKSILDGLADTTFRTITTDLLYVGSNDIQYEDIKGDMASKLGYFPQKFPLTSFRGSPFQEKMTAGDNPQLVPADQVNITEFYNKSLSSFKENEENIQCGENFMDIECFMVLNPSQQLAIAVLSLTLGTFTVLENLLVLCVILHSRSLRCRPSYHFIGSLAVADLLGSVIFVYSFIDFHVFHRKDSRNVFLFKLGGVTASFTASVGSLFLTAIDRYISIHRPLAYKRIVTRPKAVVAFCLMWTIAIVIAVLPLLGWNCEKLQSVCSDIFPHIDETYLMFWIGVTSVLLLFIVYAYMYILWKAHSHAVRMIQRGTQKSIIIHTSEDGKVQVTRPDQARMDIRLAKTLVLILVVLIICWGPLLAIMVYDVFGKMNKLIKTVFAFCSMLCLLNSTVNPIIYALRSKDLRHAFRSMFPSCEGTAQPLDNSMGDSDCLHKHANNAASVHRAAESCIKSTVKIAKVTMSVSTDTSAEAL
SMILES,+/− RCB2 [1],EC50 [2] [µM],EC50 [1] [µM]
"CNC(=O)[C@@H](NC(=O)c1nc(-c2ccccc2)n2c1CN(C(=O)OC(C)(C)C)CC2)C(C)(C)C [Compound 1, (S)-tert-butyl 1-(3,3-dimethyl-1-(methylamino)-1-oxobutan-2-ylcarbamoyl)-3-phenyl-5,6-dihydroimidazo[1,5-a]pyrazine-7(8H)-carboxylate]",−,> 10,
"CNC(=O)[C@@H](NC(=O)c1nc(-c2ccccc2)n2c1CNCC2)C(C)(C)C [Compound 2, (S)-N-(3,3-dimethyl-1-(methylamino)-1-oxobutan-2-yl)-3-phenyl-5,6,7,8-tetrahydroimidazo[1,5-a]pyrazine-1-carboxamide]",+,> 10,
"CNC(=O)[C@@H](NC(=O)c1nc(-c2cccc(C(F)(F)F)c2)n2c1CNCC2)C(C)(C)C [Compound 3, (S)-N-(3,3-dimethyl-1-(methylamino)-1-oxobutan-2-yl)-3-(3-(trifluoromethyl)phenyl)-5,6,7,8-tetrahydroimidazo[1,5-a]pyrazine-1-carboxamide]",−,> 10,
"CNC(=O)[C@@H](NC(=O)c1nc(-c2cccc(F)c2)n2c1CNCC2)C(C)(C)C [Compound 4, (S)-N-(3,3-dimethyl-1-(methylamino)-1-oxobutan-2-yl)-3-(3-fluorophenyl)-5,6,7,8-tetrahydroimidazo[1,5-a]pyrazine-1-carboxamide]",,> 10,> 10
"CNC(=O)[C@@H](NC(=O)c1nc(-c2ccc(C(F)(F)F)cc2)n2c1CNCC2)C(C)(C)C [Compound 5, (S)-N-(3,3-dimethyl-1-(methylamino)-1-oxobutan-2-yl)-3-(4-(trifluoromethyl)phenyl)-5,6,7,8-tetrahydroimidazo[1,5-a]pyrazine-1-carboxamide]",−,> 10,
"CNC(=O)[C@@H](NC(=O)c1nc(-c2ccc(F)cc2)n2c1CNCC2)C(C)(C)C [Compound 6, (S)-N-(3,3-dimethyl-1-(methylamino)-1-oxobutan-2-yl)-3-(4-fluorophenyl)-5,6,7,8-tetrahydroimidazo[1,5-a]pyrazine-1-carboxamide]",,> 10,> 10
"CNC(=O)[C@@H](NC(=O)c1nc(-c2ccc(F)c(C)c2)n2c1CNCC2)C(C)(C)C [Compound 7, (S)-N-(3,3-dimethyl-1-(methylamino)-1-oxobutan-2-yl)-3-(4-fluoro-3-methylphenyl)-5,6,7,8-tetrahydroimidazo[1,5-a]pyrazine-1-carboxamide]",−,> 10,
"CNC(=O)[C@@H](NC(=O)c1nc(-c2cccc(C)c2)n2c1CNCC2)C(C)(C)C [Compound 8, (S)-N-(3,3-dimethyl-1-(methylamino)-1-oxobutan-2-yl)-3-m-tolyl-5,6,7,8-tetrahydroimidazo[1,5-a]pyrazine-1-carboxamide]",−,> 10,
"CNC(=O)[C@@H](NC(=O)c1nc(-c2ccc(Cl)cc2)n2c1CNCC2)C(C)(C)C [Compound 9, (S)-3-(4-chlorophenyl)-N-(3,3-dimethyl-1-(methylamino)-1-oxobutan-2-yl)-5,6,7,8-tetrahydroimidazo[1,5-a]pyrazine-1-carboxamide]",−,> 10,
"CNC(=O)[C@@H](NC(=O)c1nc(-c2ccccc2Cl)n2c1CNCC2)C(C)(C)C [Compound 10, (S)-3-(2-chlorophenyl)-N-(3,3-dimethyl-1-(methylamino)-1-oxobutan-2-yl)-5,6,7,8-tetrahydroimidazo[1,5-a]pyrazine-1-carboxamide]",+,> 10,
"CNC(=O)[C@@H](NC(=O)c1nc(-c2ccsc2)n2c1CNCC2)C(C)(C)C [Compound 11, (S)-N-(3,3-dimethyl-1-(methylamino)-1-oxobutan-2-yl)-3-(thiophen-3-yl)-5,6,7,8-tetrahydroimidazo[1,5-a]pyrazine-1-carboxamide]",+,> 10,
"CNC(=O)[C@@H](NC(=O)c1nc(-c2ccoc2)n2c1CNCC2)C(C)(C)C [Compound 12, (S)-N-(3,3-dimethyl-1-(methylamino)-1-oxobutan-2-yl)-3-(furan-3-yl)-5,6,7,8-tetrahydroimidazo[1,5-a]pyrazine-1-carboxamide]",−,> 10,
"CNC(=O)[C@@H](NC(=O)c1nc(Cc2ccccc2)n2c1CNCC2)C(C)(C)C [Compound 13, (S)-3-benzyl-N-(3,3-dimethyl-1-(methylamino)-1-oxobutan-2-yl)-5,6,7,8-tetrahydroimidazo[1,5-a]pyrazine-1-carboxamide]",,> 10,> 10
"CNC(=O)[C@@H](NC(=O)c1nc(-c2cccnc2)n2c1CNCC2)C(C)(C)C [Compound 14, (S)-N-(3,3-dimethyl-1-(methylamino)-1-oxobutan-2-yl)-3-(pyridin-3-yl)-5,6,7,8-tetrahydroimidazo[1,5-a]pyrazine-1-carboxamide]",+,> 10,
"CNC(=O)[C@@H](NC(=O)c1nc(-c2ccco2)n2c1CNCC2)C(C)(C)C [Compound 15, (S)-N-(3,3-dimethyl-1-(methylamino)-1-oxobutan-2-yl)-3-(furan-2-yl)-5,6,7,8-tetrahydroimidazo[1,5-a]pyrazine-1-carboxamide]",+,> 10,
"CNC(=O)[C@@H](NC(=O)c1nc(-c2cccs2)n2c1CNCC2)C(C)(C)C [Compound 16, (S)-N-(3,3-dimethyl-1-(methylamino)-1-oxobutan-2-yl)-3-(thiophen-2-yl)-5,6,7,8-tetrahydroimidazo[1,5-a]pyrazine-1-carboxamide]",+,> 10,
"CNC(=O)[C@@H](NC(=O)c1nc(Br)n2c1CN(C)CCC2)C(C)(C)C [Compound 324, (S)-3-bromo-N-(3,3-dimethyl-1-(methylamino)-1-oxobutan-2-yl)-8-methyl-6,7,8,9-tetrahydro-5H-imidazo[1,5-a][1,4]diazepine-1-carboxamide]",,> 10,
"CNC(=O)[C@@H](NC(=O)c1nc(C2=CCCCO2)n2c1CN(C)CCC2)C(C)(C)C [Compound 452, (S)-3-(3,4-dihydro-2H-pyran-6-yl)-N-(3,3-dimethyl-1-(metylamino)-1-oxobutan-2-yl)-8-methyl-6,7,8,9-tetrahydro-5H-imidazo[1,5-a][1,4]diazepine-1-carboxamide]",+,,
"CNC(=O)[C@@H](NC(=O)c1nc(C2CCCC2)n2c1CN(C)CCC2)C(C)(C)C [Compound 497, (S)-3-cyclopentyl-N-(3,3-dimethyl-1-(methylamino)-1-oxobutan-2-yl)-8-methyl-6,7,8,9-tetrahydro-5H-imidazo[1,5-a][1,4]diazepine-1-carboxamide]",+,,
"CNC(=O)[C@@H](NC(=O)c1nc(-c2ccc(Cl)cc2F)n2c1CN(C1CCNCC1)CCC2)C(C)(C)C [Compound 526, (S)-3-(4-chloro-2-fluorophenyl)-N-(3,3-dimethyl-1-(methylamino)-1-oxobutan-2-yl)-8-(piperidin-4-yl)-6,7,8,9-tetrahydro-5H-imidazo[1,5-a][1,4]diazepine-1-carboxamide]",,> 10,
